Assay results reported in ChEMBL document CHEMBL1135326, “Structure-activity relationship studies of ethyl 2-[(3-methyl-2,5-dioxo(3-pyrrolinyl))amino]-4-(trifluoromethyl)pyrimidine-5-carboxylate: an inhibitor of AP-1 and NF-kappaB mediated gene expression” (Bioorg Med Chem Lett, 2002).

System: Jurkat
Experiment: Inhibition of AP-1 and NF-kB-mediated transcriptional activation in Jurkat cells
Type: functional, cell-based, Homo sapiens

| Structure (SMILES) | IC50 (Homo sapiens, Jurkat) | IC50 (jurkat) |
| --- | --- | --- |
| CCc1nc(NN2C(=O)C=C(C)C2=O)ncc1-c1nc(C)co1 | 830 nM | – |
| CCc1nc(NN2C(=O)C=C(C)C2=O)ncc1-c1nnc(C)o1 | 10000 nM | – |
| CC1=CC(=O)N(Nc2ncc(C(=O)N(C)C)c(C(F)(F)F)n2)C1=O | 30000 nM | – |
| CCOC(=O)c1cnc(N(C(=O)NC)N2C(=O)C=C(C)C2=O)nc1C(F)(F)F | 590 nM | – |
| CCc1nc(NN2C(=O)C=C(C)C2=O)ncc1-c1nnn(C)n1 | 10000 nM | – |
| CCOC(=O)c1cnc(N)nc1C(F)(F)F | 30000 nM | – |
| CC1=CC(=O)N(Nc2ncc(C(=O)c3ccccc3)c(C(F)(F)F)n2)C1=O | 98 nM | – |
| CCOC(=O)c1cnc(NN2C(=O)C=C(c3ccccc3)C2=O)nc1C(F)(F)F | 3700 nM | – |
| CC1=CC(=O)N(Nc2ncc(C(=O)O)c(C(F)(F)F)n2)C1=O | 30000 nM | – |
| CCOC(=O)c1cnc(N(Cc2ccccc2)N2C(=O)C=C(C)C2=O)nc1C(F)(F)F | 450 nM | – |
| CCc1nc(N(C)N2C(=O)C=C(C)C2=O)ncc1C(=O)c1ccccc1 | 410 nM | – |
| CCOC(=O)c1cnc(N(C)N2C(=O)C=C(C)C2=O)nc1C(F)(F)C(F)(F)F | 350 nM | 450 nM |
| CCOC(=O)c1cnc(N(C(=O)c2ccccc2)N2C(=O)C=C(C)C2=O)nc1C(F)(F)F | 830 nM | – |
| CCc1nc(NN2C(=O)C=C(C)C2=O)ncc1-c1ncc(-c2ccccc2)o1 | 2800 nM | – |
| CCOC(=O)c1cnc(N(C(=O)OCC)N2C(=O)C=C(C)C2=O)nc1C(F)(F)F | 380 nM | – |
| CCOC(=O)c1cnc(N(C)N2C(=O)C=C(C)C2=O)nc1CC | 35 nM | – |
| CCc1nc(NN2C(=O)C=C(C)C2=O)ncc1CO | 4900 nM | – |
| CCc1nc(N(C)N2C(=O)C=C(C)C2=O)ncc1COC | 630 nM | – |
| CC1=CC(=O)N(Nc2ncc(C(N)=O)c(C(F)(F)F)n2)C1=O | 30000 nM | – |
| CC1=CC(=O)N(Nc2ncc(C(=O)OC(C)(C)C)c(C(F)(F)F)n2)C1=O | 210 nM | – |
| CCOC(=O)c1cnc(N(C)N2C(=O)C=C(C)C2=O)nc1-c1cc2ccccc2s1 | 130 nM | – |
| CCOC(=O)c1cnc(NN2C(=O)CCC2=O)nc1C(F)(F)F | 1600 nM | – |
| CCOC(=O)c1cnc(N(C)N2C(=O)C=C(C)C2=O)nc1C(F)(F)F | 300 nM | – |
| CCOC(=O)c1cnc(N(C(C)=O)N2C(=O)C=C(C)C2=O)nc1C(F)(F)F | 410 nM | – |
| CCc1nc(NN2C(=O)C=C(C)C2=O)ncc1C#N | 1100 nM | – |
| CCCc1nc(N(C(C)=O)N2C(=O)C=C(C)C2=O)ncc1C(=O)OCC | 430 nM | – |
| CCOC(=O)c1cnc(NN2C(=O)C(C)=C(C)C2=O)nc1C(F)(F)F | 3900 nM | – |

More lines, now with the values ahead:

| IC50 (Homo sapiens, Jurkat) | IC50 (jurkat) | Structure (SMILES) |
| --- | --- | --- |
| 140 nM | – | CCOC(=O)c1cnc(NN2C(=O)C=C(C)C2=O)nc1-c1cccs1 |
| 1700 nM | – | CCOC(=O)c1cnc(N(C)N2C(=O)C=C(C)C2=O)nc1-c1nccs1 |
| 450 nM | – | CCCC(=O)c1cnc(NN2C(=O)C=C(C)C2=O)nc1CC |
| 200 nM | – | CCOC(=O)c1cnc(NN2C(=O)C=C(C)C2=O)nc1-c1ccsc1 |
| 350 nM | – | CCOC(=O)c1cnc(N(C)N2C(=O)C=C(C)C2=O)nc1-c1ccc(C)s1 |
| 7700 nM | – | CC(=O)c1cnc(NN2C(=O)C=C(C)C2=O)nc1C |
| 1900 nM | – | CCOC(=O)c1cnc(NN2C(=O)C=C(C)C2=O)nc1C |
| 520 nM | – | CCOC(=O)c1cnc(NN2C(=O)C=C(C)C2=O)nc1-c1ccc(Cl)s1 |
| 800 nM | – | CCOC(=O)c1cnc(NN2C(=O)C=C(C)C2=O)nc1-c1cc2ccccc2s1 |
| 760 nM | – | CC1=CC(=O)N(Nc2ncc(-c3nc(C)co3)c(-c3cccs3)n2)C1=O |
| 13000 nM | – | CCOC(=O)c1cnc(NN2C(=O)C=C(C)C2=O)nc1 |
| 200 nM | – | CCOC(=O)c1cnc(NN2C(=O)C=C(C)C2=O)nc1C(F)(F)C(F)(F)F |
| 650 nM | – | CCc1nc(NN2C(=O)C=C(C)C2=O)ncc1C(=O)c1ccccc1 |
| 400 nM | – | CCOC(=O)c1cnc(NN2C(=O)C=C(C)C2=O)nc1CC |
| 50 nM | – | CC1=CC(=O)N(Nc2ncc(C(=O)OC(C)(C)C)c(-c3cccs3)n2)C1=O |
| 1200 nM | – | CCOC(=O)c1cnc(NN2C(=O)C=C(C)C2=O)nc1-c1ccccc1 |
| 120 nM | – | CCc1nc(NN2C(=O)C=C(C)C2=O)ncc1C(=O)OC1CC1 |
| 10000 nM | – | CCc1nc(NN2C(=O)C=C(C)C2=O)ncc1-c1cc(C)no1 |
| 120 nM | – | CCOC(=O)c1cnc(N(C)N2C(=O)C=C(C)C2=O)nc1-c1ccsc1 |
| 45 nM | – | CCOC(=O)c1cnc(NN2C(=O)C=C(C)C2=O)nc1-c1ccc(C)s1 |
| 6000 nM | – | CCOC(=O)c1cnc(NN2C(=O)C=C(C)C2=O)nc1COC |
| 1500 nM | – | CCOC(=O)c1cnc(NN2C(=O)C=C(C)C2=O)nc1C1CC1 |
| 3800 nM | – | CCOC(=O)c1cnc(NN2C(=O)C=C(C)C2=O)nc1Cc1ccccc1 |
| 2000 nM | – | CCOC(=O)c1cnc(NN2C(=O)C=C(C)C2=O)nc1C(F)(F)F |
| 2200 nM | – | CCOC(=O)c1cnc(NN2C(=O)C=C(C)C2=O)nc1-c1nccs1 |
| 1000 nM | – | CCOC(=O)c1cnc(NN2C(=O)C=C(C)C2=O)nc1-c1ccco1 |
| 94 nM | – | CCOC(=O)c1cnc(N(C)N2C(=O)C=C(C)C2=O)nc1-c1cccs1 |
| 4400 nM | – | CC(=O)c1cnc(NN2C(=O)C=C(C)C2=O)nc1C(F)(F)F |
